The first assay addresses T1, GLP-1R (Homo sapiens, UniProt P43220).
T1 construct: host or cells: GLP-1R CRE-bla CHO-K1 cells
Nature of the assay: EC20 GLP-1(9-36) PAM cAMP assay: dose response of compound in the presence of fixed concentration of GLP-1(9-36). Format: cell-based. The conditions noted are these: GLP-1R CRE-bla CHO-K1 cells, compound dose response with fixed concentration of GLP-1(9-36), read-out: EC20 GLP-1(9-36) PAM EC50. How it is done: EC20 GLP-1(9-36) PAM cAMP Assay: Dose Response of Compound in the Presence of Fixed Concentration of GLP-1 (9-36).
GLP-1R CRE-bla CHO-K1 cells cultured in growth medium (DMEM-High glucose, 10% dialyzed FBS, 0.1 mM NEAA, 25 mM Hepes, 100 U/mL penicillin/100 μg/mL streptomycin, 5 μg/mL Blasticidin, 600 μg/mL Hygromycin) were trypsinized and plated in suspension into 384 well white flat bottom plates at 5000 cells/well in 12 μL assay buffer (Hanks Balanced Salt solution, 10 mM hepes, 0.1% BSA, pH 7.4). A 5× compound dose response curve (12-point) was generated in assay buffer containing 1.5 mM IBMX, 4% DMSO. GLP-1(9-36) was diluted to 4.2 μM in assay buffer containing 1.5 mM IMBX and 4% DMSO. The 5× compound dose response was added (3 μL), followed by 0.5 μL of GLP-1(9-36) and cells were incubated for 30 min at 37° C. Direct detection of cAMP was carried out using DiscoveRx HitHunter cAMP kit according to manufacturer's instructions and luminescence was read using a SpectraMax M5 plate reader. Luminescence was converted to total cAMP using a cAMP standard curve and data was analyzed by non-linear regression to determine the EC50 and Emax.
GLP-1(7-36): […]-NH2 (SEQ ID NO: 2). GLP-1(9-36): […]-NH2 (SEQ ID NO: 3). GLP-1(7-36) was purchased from GenScript. GLP-1(9-36) was purchased from Biopeptide Co., Inc.
The EC20GLP-1(9-36) PAM Activity range is denoted as follows: + denotes activity <0.8 μM, ++ denotes activity between 0.8 and 2.5 μM, +++ denotes activity between 2.5 and 5 μM, and ++++ denotes activity 5 to 10 μM.
T1 sequence (P43220 24-463): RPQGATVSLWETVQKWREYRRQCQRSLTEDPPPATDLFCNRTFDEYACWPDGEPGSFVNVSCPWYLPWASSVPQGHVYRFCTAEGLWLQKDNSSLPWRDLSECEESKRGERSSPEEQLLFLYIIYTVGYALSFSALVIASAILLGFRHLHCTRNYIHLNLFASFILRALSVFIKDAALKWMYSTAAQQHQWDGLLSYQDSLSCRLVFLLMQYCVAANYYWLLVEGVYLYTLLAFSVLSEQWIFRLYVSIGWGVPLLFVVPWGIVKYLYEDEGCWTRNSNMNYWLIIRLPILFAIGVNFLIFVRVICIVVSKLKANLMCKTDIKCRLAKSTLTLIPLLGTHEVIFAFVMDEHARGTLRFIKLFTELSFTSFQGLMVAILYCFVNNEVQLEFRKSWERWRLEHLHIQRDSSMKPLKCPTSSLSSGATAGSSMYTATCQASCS
T1 sequence (P01275 100-127 partner limits assumed): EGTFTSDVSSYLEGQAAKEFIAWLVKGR
For the compound `CCCc1ccc(N2CCN(c3cnc(-c4ccc(CC(NC(=O)c5ccc(C(C)(C)C)s5)C(=O)N5CC(C(=O)O)C5)cc4)nc3)C(=O)C2)cc1` (racemic) [Compound 1411], the EC50 (as a rule, the concentration that produces a half-maximal response) lay within 0.8 to 2.5 µM.

Take `CCCCCCCOc1ccc(-c2nnc(-c3ccc(CC(NC(=O)c4ccc(C(C)(C)C)cc4)C(=O)O)cc3F)s2)cc1` (stereo in doubt) [Compound 1552, (S)-2-(4-(tert-butyl)benzamido)-3-(3-fluoro-4-(5-(4-(heptyloxy)phenyl)-1,3,4-thiadiazol-2-yl)phenyl)propanoic acid]: the EC50 lay in the range of 0.8 to 2.5 µM.

The assay is the same for the next values; noted with them: dose response of compound in presence of fixed concentration of GLP-1(9-36), GLP-1R CRE-bla CHO-K1 cells, read-out: EC20 GLP-1(9-36) PAM EC50.
With `CCCCCCCOc1ccc(-c2cnc(-c3ccc(C[C@H](NC(=O)c4ncc(C(C)C)s4)C(=O)O)cc3)nc2)cc1` [Compound 148], the EC50 was 0.8 to 2.5 µM. `CCCCCCCOc1ccc(-c2cnc(-c3ccc(C[C@@H](NC(=O)c4ccc(C(C)(C)C)cc4)C(=O)O)cc3)nc2)cc1` [Compound 191, (R)-2-(4-(tert-butyl)benzamido)-3-(4-(5-(4-(heptyloxy)phenyl)pyrimidin-2-yl)phenyl)propanoic acid]: the EC50 lay within 0.8 to 2.5 µM. As for `CCCCCCc1nc(-c2cnc(-c3ccc(C[C@H](NC(=O)c4ccc(C(C)(C)C)cc4)C(=O)O)cc3)nc2)no1` [Compound 248, (S)-2-(4-(tert-butyl)benzamido)-3-(4-(5-(5-hexyl-1,2,4-oxadiazol-3-yl)pyrimidin-2-yl)phenyl)propanoic acid], the EC50 lay in the range of 2.5 to 5 µM. `CCCCCCOc1ccc(-c2ccc(-c3ccc(C[C@H](NC(=O)c4ccc(C(C)(C)C)cc4)C(=O)O)cc3)cn2)cc1` [Compound 270]: the EC50 lay in the range of 2.5 to 5 µM. Still for that read-out and setting: with `CCCCCCCOc1ccc(-c2ccc(-c3ccc(C[C@H](NC(=O)c4ccc(C(C)(C)C)cc4)C(=O)O)cc3)nn2)cc1` [Compound 273] the figure was 0.8 to 2.5 µM; with `CCCCCCCOc1ccc(-c2ncc(-c3ccc(C[C@H](NC(=O)c4ccc(C(C)(C)C)cc4)C(=O)O)cc3)nn2)cc1` [Compound 275], 0.8 to 2.5 µM. In the case of `CCCCCCCOc1ccc(-c2cnc(-c3ccc(C(NC(=O)c4ccc(C(C)(C)C)s4)C(=O)O)cc3)nc2)cc1` (centres unmarked) [Compound 289, 2-(5-(tert-butyl)thiophene-2-carboxamido)-2-(4-(5-(4-(heptyloxy)phenyl)pyrimidin-2-yl)phenyl)acetic acid], the EC50 lay in the range of 2.5 to 5 µM.

For `CCCCCCCOc1ccc(-c2cnc(-c3ccc(C[C@H](NC(=O)c4ccc(C(C)(C)C)s4)C(=O)N4CCC[C@H]4C(=O)O)cc3)nc2)cc1` [Compound 328, (S)-1-((S)-2-(5-(tert-butyl)thiophene-2-carboxamido)-3-(4-(5-(4-(heptyloxy)-phenyl)pyrimidin-2-yl)phenyl)propanoyl)pyrrolidine-2-carboxylic acid], the EC50 was less than 0.8 µM.

As for `CCCCCCCOc1ccc(-c2cnc(-c3ccc(C[C@@H](NC(=O)c4ccc(C(C)(C)C)cc4)C(=O)NCC(=O)O)cc3)nc2)cc1` [Compound 380], the EC50 was in the range of 0.8 to 2.5 µM. As to `CC(C)(C)c1ccc(-c2cnc(-c3ccc(C[C@H](NC(=O)c4ccc(C(C)(C)C)s4)C(=O)N[C@H]4CCC[C@H]4C(=O)O)cc3)nc2)cc1` [Compound 382], the half-maximal effective concentration (EC50) lay in the range of 0.8 to 2.5 µM.

With `CCCCCCCOc1ccc(-c2cnc(-c3ccc(C[C@H](NC(=O)c4ccc(C(C)(C)C)s4)C(=O)NC)cc3)nc2)cc1` [Compound 383], the EC50 fell in the range of 2.5 to 5 µM. Take `CCCCCCCOc1ccc(-c2cnc(-c3ccc(C[C@H](NC(=O)c4ccc(C(C)(C)C)s4)C(=O)NCCN)cc3)nc2)cc1` [Compound 384]: the EC50 was in the range of 5 to 10 µM. `CCCCCCCOc1ccc(-c2cnc(-c3ccc(C[C@H](NC(=O)c4ccc(C(C)(C)C)s4)C(=O)NCCN(C)C)cc3)nc2)cc1` [Compound 385]: the EC50 was in the range of 5 to 10 µM. As to `CCCCCCCOc1ccc(-c2cnc(-c3ccc(C[C@H](NC(=O)c4ccc(C(C)(C)C)s4)C(=O)NCCOC)cc3)nc2)cc1` [Compound 386], the EC50 was 0.8 to 2.5 µM. With `CCCCCCCOc1ccc(-c2cnc(-c3ccc(C[C@H](NC(=O)c4ccc(C(C)(C)C)s4)C(=O)NC(C)CO)cc3)nc2)cc1` (some centres unmarked) [Compound 387], the EC50 is 5 to 10 µM.

For the origin of these results see US10034886B2, “GLP-1 receptor modulators” (Celgene International II SÀRL, priority 2014, dated 2018).
